23 compounds from patent US11254651B2, “Histone methyltransferase inhibitors” (GLOBAL BLOOD THERAPEUTICS, INC., priority 2016, dated 2022) can be followed below.

Structures can show the parent of a compound that is named as a salt.

The target of this assay is T1, G9a (Homo sapiens, UniProt Q96KQ7).
T1 sequence (Q96KQ7 1-1210): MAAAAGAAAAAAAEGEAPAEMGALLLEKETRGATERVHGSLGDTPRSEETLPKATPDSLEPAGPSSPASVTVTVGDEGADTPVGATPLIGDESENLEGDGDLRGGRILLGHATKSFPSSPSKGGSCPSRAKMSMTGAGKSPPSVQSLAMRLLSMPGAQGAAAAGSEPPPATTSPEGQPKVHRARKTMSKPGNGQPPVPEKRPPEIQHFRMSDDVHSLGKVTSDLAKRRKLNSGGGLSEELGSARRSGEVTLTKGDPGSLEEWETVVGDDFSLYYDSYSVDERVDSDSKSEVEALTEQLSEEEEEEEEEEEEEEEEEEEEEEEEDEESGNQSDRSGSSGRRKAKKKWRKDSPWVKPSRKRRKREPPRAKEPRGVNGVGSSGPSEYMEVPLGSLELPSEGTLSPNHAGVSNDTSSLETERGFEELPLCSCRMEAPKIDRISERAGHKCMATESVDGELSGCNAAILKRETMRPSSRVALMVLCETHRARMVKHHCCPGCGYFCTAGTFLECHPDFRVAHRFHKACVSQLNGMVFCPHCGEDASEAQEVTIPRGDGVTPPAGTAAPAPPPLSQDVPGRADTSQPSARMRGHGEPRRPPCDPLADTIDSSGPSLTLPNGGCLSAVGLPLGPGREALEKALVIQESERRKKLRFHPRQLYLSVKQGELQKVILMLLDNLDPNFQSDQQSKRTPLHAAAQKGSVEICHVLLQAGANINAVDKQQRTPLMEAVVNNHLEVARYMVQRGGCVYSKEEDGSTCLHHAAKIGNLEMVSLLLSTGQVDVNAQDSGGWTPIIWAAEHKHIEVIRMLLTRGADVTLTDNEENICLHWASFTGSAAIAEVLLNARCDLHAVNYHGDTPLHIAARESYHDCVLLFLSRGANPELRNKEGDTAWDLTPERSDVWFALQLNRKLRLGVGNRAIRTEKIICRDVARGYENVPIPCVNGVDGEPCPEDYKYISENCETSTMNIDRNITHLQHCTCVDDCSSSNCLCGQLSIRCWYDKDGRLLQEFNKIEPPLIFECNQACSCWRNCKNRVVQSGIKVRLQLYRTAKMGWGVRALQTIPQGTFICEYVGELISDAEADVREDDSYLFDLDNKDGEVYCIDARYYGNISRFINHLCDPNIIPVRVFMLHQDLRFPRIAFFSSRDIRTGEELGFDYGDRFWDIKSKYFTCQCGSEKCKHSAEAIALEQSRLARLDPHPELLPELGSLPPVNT
Nature of the assay: G9a AlphaLISA enzymatic activity assay. It counts as biochemical. As to conditions: 0.15 nM G9a, 15 uM S-adenosyl-methionine, 100 nM biotinylated histone 3 peptide (1-21), 1 hour room temperature. The text has this: The G9a AlphaLISA assay was used to detect the methyl modifications of a biotinylated histone H3 peptide by the compounds. These modifications are done by the histone methyl transferase activity of the G9a enzyme. The assay consists of reading a chemiluminescent signal at 615 nm; this signal is generated by a laser excitation at 680 nm that transfers a reactive singlet oxygen between the donor beads and acceptor beads. Donor beads are streptavidin conjugated and bind to the biotin on the peptide. Acceptor beads are conjugated with an antibody that recognizes the specific G9a methyl mark on the peptide. If there is a methyl mark on the peptide, the acceptor beads will bind to the peptide. Upon binding, the acceptor beads will be in close proximity (<200 nm) of the donor beads and when the donor beads are excited, the transfer of the oxygen can occur and a strong signal will be generated. If there is no methyl mark, the interaction between beads will not occur and signal will be at background levels.
For the assay, the following buffer was used to set up reactions: 50 mM Tris-HCl pH9, 50 mM NaCl, 0.01% Tween-20 and 1 mM DTT (added fresh prior to starting the reactions). The assay is set up by adding a final concentration of 0.15 nM G9a, 15 uM S-adenosyl-methionine and, 100 nM biotinylated histone 3 peptide (1-21). The reaction is incubated at room temperature for 1 hour, and subsequently quenched by the addition of the acceptor beads (anti-H3k9me2 AlphaLISA acceptor beads, PerkinElmer #AL117) at a final concentration of 20 ug/mL. The acceptor beads are incubated for 1 hour. After 1 hour, the donor beads are added at a final concentration of 20 ug/mL (Alpha Streptavidin donor beads, PerkinElmer #6760002). Donor beads are incubated for 0.5 hours. Both donor and acceptor beads are resuspended in AlphaLISA 5X Epigenetics Buffer 1 Kit (PerkinElmer #AL008) prior to addition to the reaction. All manipulations and incubations with the donor and acceptor beads are done in subdued light. Signal is detected in an EnVision plate reader in Alpha mode (see ACS Med Chem Lett. 2014 Jan. 2; 5(2):205-9. doi: 10.1021/m1400496h. eCollection 2014. Discovery and development of potent and selective inhibitors of histone methyltransferase g9a.)
Percent inhibition was calculated for each compound dilution and the concentration that produced 50% inhibition was calculated. This value is presented as the IC50.

In the case of `COc1cc2c(NC3CCN(C(C)C)CC3)c3c(nc2cc1OCCCN1CCCC1)CCCC3` [Entry 16, 7-methoxy-N-[1-(propan-2-yl)piperidin-4-yl]-6-[3-(pyrrolidin-1-yl)propoxy]-1,2,3,4-tetrahydroacridin-9-amine trifluoroacetate], the IC50 amounted to 11 nM.

Take `CNc1c2ccccc2nc2cc(OCCCN3CCCC3)ccc12` [Entry 10, N-methyl-3-[3-(pyrrolidin-1-yl)propoxy]acridin-9-amine formate]: half-maximal inhibition (IC50) was put at 56.7 nM.

Take `COc1cc2c(NC3CCOCC3)c3cc(C)ccc3nc2cc1OCCCN1CCCC1` [Entry 114, 2-methoxy-7-methyl-N-(oxan-4-yl)-3-[3-(pyrrolidin-1-yl)propoxy]acridin-9-amine formate]: the IC50 worked out at 54.3 nM.

As for `COc1cc2c(NCC3COC3)c3c(nc2cc1OCCCN1CCCC1)CCC3` [Entry 39, 7-methoxy-N-[(oxetan-3-yl)methyl]-6-[3-(pyrrolidin-1-yl)propoxy]-1H,2H,3H-cyclopenta[b]quinolin-9-amine formate], half-maximal inhibition (IC50) was put at 20 nM.

`COc1cc2c(NCC3CC3)c3c(nc2cc1OCC1CCN(C)C1)CCC3` (centres unmarked) [Entry 52, N-(cyclopropylmethyl)-7-methoxy-6-[(1-methylpyrrolidin-3-yl)methoxy]-1H,2H,3H-cyclopenta[b]quinolin-9-amine formate] had an IC50 of 65 nM.

For `COc1cc2c(NC3CC4CCC(C3)O4)c3ccccc3nc2cc1OCCCN1CCCC1` (centres unmarked) [Entry 80, 2-methoxy-N-{8-oxabicyclo[3.2.1]octan-3-yl}-3-[3-(pyrrolidin-1-yl)propoxy]acridin-9-amine formate], the IC50 was 65.3 nM.

For the compound `COc1cc2c(NC(C3CC3)C3CC3)c3c(nc2cc1OCCCN1CCCC1)CCC3` [Entry 65, N-(dicyclopropylmethyl)-7-methoxy-6-[3-(pyrrolidin-1-yl)propoxy]-1H,2H,3H-cyclopenta[b]quinolin-9-amine formate], the IC50 came out at 7.7 nM.

In turn, `COc1cc2c(NC(C)C)c3ncccc3nc2cc1OCCCN1CCCC1` [Entry 122, 8-methoxy-N-(propan-2-yl)-7-[3-(pyrrolidin-1-yl)propoxy]benzo[b]1,5-naphthyridin-10-amine formate] returned an IC50 of 23.8 nM.

In turn, `COc1cc2c(NC3CCC(=O)N(C)C3)c3c(nc2cc1OCCCN1CCCC1)CCC3` (centres unmarked) [Entry 58, 5-({7-methoxy-6-[3-(pyrrolidin-1-yl)propoxy]-1H,2H,3H-cyclopenta[b]quinolin-9-yl}amino)-1-methylpiperidin-2-one trifluoroacetate] registered an IC50 of 46.4 nM.

As to `CNc1c2ccccc2nc2cc(OCCCN3CCCC3)c(OC)cc12` [Entry 1, 2-methoxy-N-methyl-3-[3-(pyrrolidin-1-yl)propoxy]acridin-9-amine], the IC50 worked out at 1.3 nM.

Consider `COc1cc2c(NCC3CC3)c3c(nc2cc1OCCCN1CCCC1)CCC3` [Entry 32, N-(cyclopropylmethyl)-7-methoxy-6-[3-(pyrrolidin-1-yl)propoxy]-1H,2H,3H-cyclopenta[b]quinolin-9-amine formate], for which the IC50 was 14 nM.

As for `CNc1c2c(nc3cc(OCCCN4CCC(F)C4)c(OC)cc13)CCC2` (centres unmarked) [Entry 29, 6-[3-(3-fluoropyrrolidin-1-yl)propoxy]-7-methoxy-N-methyl-1H,2H,3H-cyclopenta[b]quinolin-9-amine], the IC50 was determined as 250 nM.

`COc1cc2c(Nc3ccn(C)n3)c3c(nc2cc1OCCCN1CCCC1)CCC3` [Entry 70, N-{7-methoxy-6-[3-(pyrrolidin-1-yl)propoxy]-1H,2H,3H-cyclopenta[b]quinolin-9-yl}-1-methyl-1H-pyrazol-3-amine formate] gave a half-maximal inhibitory concentration (IC50) of 35.8 nM.

In turn, `CNc1c2ccccc2nc2cc(OCCCN(C)C)c(OC)cc12` [Entry 119, 3-[3-(dimethylamino)propoxy]-2-methoxy-N-methylacridin-9-amine trifluoroacetate] came in with an IC50 of 28.5 nM.

For `COc1cc2c(NC3CC(C)OC(C)C3)c3c(nc2cc1OCCCN1CCCC1)CCC3` (centres unmarked) [Entry 53, N-(2,6-dimethyloxan-4-yl)-7-methoxy-6-[3-(pyrrolidin-1-yl)propoxy]-1H,2H,3H-cyclopenta[b]quinolin-9-amine formate], it took 21.6 nM to reach half-maximal inhibition (IC50).

As to “2-ethoxy-N-methyl-3-[3-(pyrrolidin-1-yl)propoxy]acridin-9-amine formate and 3-ethoxy-N-methyl-2-[3-(pyrrolidin-1-yl)propoxy]acridin-9-amine formate (1:1) [Entry 118]”, half-maximal inhibition (IC50) required 75.5 nM.

`COc1cc2c(NCCO)c3c(nc2cc1OCCCN1CCCC1)CCC3` [Entry 34, 2-({7-methoxy-6-[3-(pyrrolidin-1-yl)propoxy]-1H,2H,3H-cyclopenta[b]quinolin-9-yl}amino)ethan-1-ol formate] came in with an IC50 of 7.6 nM.

Consider `COc1cc2c(NC3CCN(C)CC3)c3ccccc3nc2cc1OCCCN1CCCC1` [Entry 4, 2-methoxy-N-(1-methylpiperidin-4-yl)-3-[3-(pyrrolidin-1-yl)propoxy]acridin-9-amine trifluoroacetate], for which the half-inhibitory concentration (IC50) came out at 1.1 nM.

Turning to `COc1cc2c(O)c3ccccc3nc2cc1OCCCN1CCCC1` [Entry 6, 2-methoxy-3-[3-(pyrrolidin-1-yl)propoxy]acridin-9-ol formate], the IC50 came out at 42 nM.

`COc1ccc2nc3cc(OCCCN4CCCC4)c(OC)cc3c(NC3CCOCC3)c2c1` [Entry 115, 2,7-dimethoxy-N-(oxan-4-yl)-3-[3-(pyrrolidin-1-yl)propoxy]acridin-9-amine trifluoroacetate]: the IC50 came to 215 nM.

As to `CCOc1c2ccccc2nc2cc(OCCCN3CCCC3)c(OC)cc12` [Entry 7, 9-ethoxy-2-methoxy-3-[3-(pyrrolidin-1-yl)propoxy]acridine formate], the IC50 was 1400 nM.

`COc1cc2c(NCC(C)(C)O)c3cccnc3nc2cc1OCCCN1CCCC1` [Entry 123, 1-({7-methoxy-8-[3-(pyrrolidin-1-yl)propoxy]benzo[b]1,8-naphthyridin-5-yl}amino)-2-methylpropan-2-ol formate] yielded an IC50 of 251 nM.

On to `COc1cc2c(NCc3ccccc3)c3c(nc2cc1OCCCN1CCCC1)CCC3` [Entry 46, N-benzyl-7-methoxy-6-[3-(pyrrolidin-1-yl)propoxy]-1H,2H,3H-cyclopenta[b]quinolin-9-amine formate], for which the IC50 is 36 nM.

As a reminder, the IC50 is the concentration that gives 50% inhibition.
